According to patent publication US11117900B2 (Vertex Pharmaceuticals Incorporated, priority 2012, dated 2021):

Tests used:
[1] = test system: HCT116 colorectal cancer cells; test: Cisplatin sensitization assay (96 h MTS cell viability); format: cell-based; conditions: Cisplatin sensitization value;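 also: compound concentration needed to lower the IC50 of Cisplatin alone by a set fold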
Method in brief: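 The MTS viability read, after 1 h with reagent, followed 96 h of co-treatment at 37° C. in 5% CO2. Both compound and cisplatin were titrated 2-fold from a 10 μM top final concentration in a complete concentration matrix on HCT116 cells. Scores +++/++/+ reflect cisplatin sensitization value ranges.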

[2] = biological target: full-length ATR (Homo sapiens (Human), UniProt Q13535); test: ATR inhibition assay (radioactive-phosphate incorporation); format: biochemical; conditions: Ki(app), 5 nM full-length ATR, 10 μM ATP, 25° C.
full-length ATR, sequence (Q13535 whole entry): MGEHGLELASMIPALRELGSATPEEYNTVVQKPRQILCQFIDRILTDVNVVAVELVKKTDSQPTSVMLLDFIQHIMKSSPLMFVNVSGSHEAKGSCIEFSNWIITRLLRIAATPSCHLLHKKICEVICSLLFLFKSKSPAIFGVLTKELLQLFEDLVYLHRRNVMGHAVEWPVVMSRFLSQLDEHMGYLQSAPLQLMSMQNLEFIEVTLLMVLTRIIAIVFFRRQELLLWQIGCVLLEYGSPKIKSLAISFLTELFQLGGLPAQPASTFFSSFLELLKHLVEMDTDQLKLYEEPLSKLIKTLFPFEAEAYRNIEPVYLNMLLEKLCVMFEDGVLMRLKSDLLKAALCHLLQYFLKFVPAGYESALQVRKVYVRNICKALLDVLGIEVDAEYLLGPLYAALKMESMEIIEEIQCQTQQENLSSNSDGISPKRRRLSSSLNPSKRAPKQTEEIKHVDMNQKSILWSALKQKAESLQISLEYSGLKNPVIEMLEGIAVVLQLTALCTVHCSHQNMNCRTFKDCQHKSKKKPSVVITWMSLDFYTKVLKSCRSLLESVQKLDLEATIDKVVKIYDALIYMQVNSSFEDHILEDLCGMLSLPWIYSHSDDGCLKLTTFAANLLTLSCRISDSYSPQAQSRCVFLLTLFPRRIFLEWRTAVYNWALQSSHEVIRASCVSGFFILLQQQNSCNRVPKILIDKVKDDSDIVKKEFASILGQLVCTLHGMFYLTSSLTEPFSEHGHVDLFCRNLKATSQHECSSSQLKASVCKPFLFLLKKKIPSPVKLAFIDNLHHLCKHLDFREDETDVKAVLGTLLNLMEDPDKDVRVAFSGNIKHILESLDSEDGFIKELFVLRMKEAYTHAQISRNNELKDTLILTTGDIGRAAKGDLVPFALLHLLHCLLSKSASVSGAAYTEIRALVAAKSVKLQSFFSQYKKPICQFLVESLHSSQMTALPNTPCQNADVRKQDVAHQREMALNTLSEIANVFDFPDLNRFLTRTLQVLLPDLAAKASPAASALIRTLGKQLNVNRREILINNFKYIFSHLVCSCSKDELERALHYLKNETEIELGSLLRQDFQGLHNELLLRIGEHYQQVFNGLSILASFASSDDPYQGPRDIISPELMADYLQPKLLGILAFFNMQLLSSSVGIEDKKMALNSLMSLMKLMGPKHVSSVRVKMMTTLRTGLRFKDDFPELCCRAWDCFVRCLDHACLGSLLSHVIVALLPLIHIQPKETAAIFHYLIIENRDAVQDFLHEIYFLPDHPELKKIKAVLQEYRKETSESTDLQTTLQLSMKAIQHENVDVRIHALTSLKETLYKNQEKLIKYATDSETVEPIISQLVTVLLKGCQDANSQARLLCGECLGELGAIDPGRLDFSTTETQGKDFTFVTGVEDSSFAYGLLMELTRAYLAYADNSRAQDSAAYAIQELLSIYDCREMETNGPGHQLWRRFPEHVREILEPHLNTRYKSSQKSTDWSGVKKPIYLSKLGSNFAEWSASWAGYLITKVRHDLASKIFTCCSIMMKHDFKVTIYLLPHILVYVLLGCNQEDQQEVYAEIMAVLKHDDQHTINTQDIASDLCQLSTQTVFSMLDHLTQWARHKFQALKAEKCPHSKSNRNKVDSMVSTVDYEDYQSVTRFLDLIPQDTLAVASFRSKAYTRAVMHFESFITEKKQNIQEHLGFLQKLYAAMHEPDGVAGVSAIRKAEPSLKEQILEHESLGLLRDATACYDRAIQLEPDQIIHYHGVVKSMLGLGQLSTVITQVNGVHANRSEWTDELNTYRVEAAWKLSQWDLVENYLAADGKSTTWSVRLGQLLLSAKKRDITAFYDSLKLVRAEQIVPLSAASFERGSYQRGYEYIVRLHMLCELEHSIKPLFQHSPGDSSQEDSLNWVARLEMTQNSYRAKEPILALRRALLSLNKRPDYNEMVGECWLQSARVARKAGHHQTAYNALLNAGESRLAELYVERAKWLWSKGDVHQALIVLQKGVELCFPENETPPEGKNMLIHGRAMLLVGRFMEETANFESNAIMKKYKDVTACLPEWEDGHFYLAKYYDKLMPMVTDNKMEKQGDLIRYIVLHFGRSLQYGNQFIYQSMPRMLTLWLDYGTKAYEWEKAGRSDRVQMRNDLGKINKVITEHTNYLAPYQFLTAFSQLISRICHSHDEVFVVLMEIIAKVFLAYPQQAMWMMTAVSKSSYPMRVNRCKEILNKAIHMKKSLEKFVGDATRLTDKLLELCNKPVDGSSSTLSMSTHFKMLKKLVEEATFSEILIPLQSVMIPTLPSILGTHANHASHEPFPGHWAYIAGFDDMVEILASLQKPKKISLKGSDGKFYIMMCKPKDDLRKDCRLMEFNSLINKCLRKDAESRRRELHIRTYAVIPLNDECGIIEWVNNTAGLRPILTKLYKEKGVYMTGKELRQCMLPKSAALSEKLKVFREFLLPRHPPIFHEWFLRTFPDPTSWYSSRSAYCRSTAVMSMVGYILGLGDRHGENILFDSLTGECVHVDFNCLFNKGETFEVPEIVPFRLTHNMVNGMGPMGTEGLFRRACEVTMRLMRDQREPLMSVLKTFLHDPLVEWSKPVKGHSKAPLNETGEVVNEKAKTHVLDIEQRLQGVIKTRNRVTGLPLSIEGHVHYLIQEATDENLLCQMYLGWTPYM
Procedure: Compounds were screened for their ability to inhibit ATR kinase using a radioactive-phosphate incorporation assay. Assays were carried out in a mixture of 50 mM Tris/HCl (pH 7.5), 10 mM MgCl2 and 1 mM DTT. Final substrate concentrations were 10 μM [γ-33P]ATP (3 mCi 33P ATP/mmol ATP, Perkin Elmer) and 800 μM target peptide ([…]) (SEQ ID NO:1).
Assays were carried out at 25° C. in the presence of 5 nM full-length ATR. An assay stock buffer solution was prepared containing all of the reagents listed above, with the exception of ATP and the test compound of interest. 13.5 μL of the stock solution was placed in a 96 well plate followed by addition of 2 μL of DMSO stock containing serial dilutions of the test compound (typically starting from a final concentration of 15 μM with 3-fold serial dilutions) in duplicate (final DMSO concentration 7%). The plate was pre-incubated for 10 minutes at 25° C. and the reaction initiated by addition of 15 μL [γ-33P]ATP (final concentration 10 μM).
The reaction was stopped after 24 hours by the addition of […] phosphoric acid containing 2 mM ATP. […]
After removing mean background values for all of the data points, Ki(app) data were calculated from non-linear regression analysis of the initial rate data using the Prism software package (GraphPad Prism version 3.0 cx for Macintosh, GraphPad Software, San Diego Calif., USA).

**Q.** Which results are given for `Nc1nn2cc(F)cnc2c1C(=O)Nc1cnccc1OC1CC[S+]([O-])CC1` (centres unmarked) [I-O-44, 2-amino-6-fluoro-N-(4-((1-oxidotetrahydro-2H-thiopyran-4-yl)oxy)pyridin-3-yl)pyrazolo[1,5-a]pyrimidine-3-carboxamide]?
**A.** Cisplatin Sensitization Assay [1]: ++ (Compounds with a Cisplatin sensitization value >0.02 μM but <0.2 μM are marked with “++.”); Ki [2]: 10 to 1000 nM
